Laboratory results published in US9546153B2, “Bicyclic heterocycle substituted pyridyl compounds useful as kinase modulators” (BRISTOL-MYERS SQUIBB COMPANY, priority 2012, dated 2017).
pIC50: −log10 of the molar value. Read-outs that look alike come from different tables or passages of the source.

Experiments:
IRAK4 = IRAK4 (Homo sapiens (Human), UniProt Q9NWZ3); experiment: IRAK4 Inhibition Assay; type: biochemical; settings: ATP 500 μM; IRAK4 0.6 nM; 60 min at room temperature
Experimental: The assays were performed in U-bottom 384-well plates. […] The reaction was initiated by the combination of IRAK4 with substrates and test compounds. The reaction was incubated at room temperature for 60 min. and terminated by adding 45 μL of 35 mM EDTA to each sample. The reaction mixture was analyzed on the Caliper LABCHIP® 3000 (Caliper, Hopkinton, Mass.) by electrophoretic separation of the fluorescent substrate and phosphorylated product.

[1] = test system: TLR2 induced IL-6 in peripheral blood mononuclear cells (PBMCs); experiment: PBMC TLR2 Induced IL-6 Assay; type: cell-based, human; settings: human PBMCs, 10 μg/ml lipoteichoic acid for 5 hours, IL-6 by ELISA, value without asterisk, read-out: Cell IC50
Method in brief: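 IL-6 ELISA of supernatants after a 5 h challenge with the TLR2 agonist lipoteichoic acid (10 μg/ml). Before stimulation, human PBMCs (250000 cells/well; RPMI, 10% heat-inactivated FCS) received compound for 30 min at 37° C. Values given as IC50 or EC50.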

Sequence of IRAK4 (Q9NWZ3 whole entry, species assumed): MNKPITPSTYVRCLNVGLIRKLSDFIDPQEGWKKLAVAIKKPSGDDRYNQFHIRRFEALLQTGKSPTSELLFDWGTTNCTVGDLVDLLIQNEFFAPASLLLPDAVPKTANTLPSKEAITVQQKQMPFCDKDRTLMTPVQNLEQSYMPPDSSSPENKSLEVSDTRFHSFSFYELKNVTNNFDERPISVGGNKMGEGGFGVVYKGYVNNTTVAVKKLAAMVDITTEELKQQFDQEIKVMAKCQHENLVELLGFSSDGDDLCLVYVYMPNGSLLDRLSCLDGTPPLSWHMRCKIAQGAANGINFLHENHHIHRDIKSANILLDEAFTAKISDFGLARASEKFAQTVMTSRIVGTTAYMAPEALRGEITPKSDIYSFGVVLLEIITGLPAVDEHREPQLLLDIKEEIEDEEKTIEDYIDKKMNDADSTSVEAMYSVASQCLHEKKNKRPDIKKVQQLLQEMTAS

| Structure (SMILES) | pIC50 (IRAK4) | pIC50 [1] | pIC50 ([1]; Homo sapiens, PBMC, 5 h) |
| --- | --- | --- | --- |
| Cc1cc2nc(Nc3cc(NC4CCC(F)C4)c(C(=O)NC[C@@H](F)C(C)(C)O)cn3)ccn2n1 (some centres unmarked) [Example 268] | 8.21 | 6.42 | – |
| CC(C)(O)[C@H](F)CNC(=O)c1cnc(Nc2ccc3nccn3n2)cc1NC1CCC1 [Example 272] | 8.32 | – | 6.76 |
| CC(C)(O)[C@H](F)CNC(=O)c1cnc(Nc2ccc3nccn3n2)cc1NC1CCCC1F (some centres unmarked) [Example 273] | 8.62 | – | 6.12 |
| CC(C)(O)[C@H](F)CNC(=O)c1cnc(Nc2ccc3nccn3n2)cc1NC1CCCC1F (some centres unmarked) [Example 274] | 8.55 | 6.15 | – |
| CC(C)(C)CNc1cc(Nc2ccc3nccn3n2)ncc1C(=O)NC[C@@H](F)C(C)(C)O [Example 275] | 8.51 | – | 6.47 |
| Cc1cnc2ccc(Nc3cc(NC(C)C)c(C(=O)NC[C@@H](F)C(C)(C)O)cn3)nn12 [Example 277] | 8.44 | – | 6.74 |
| Cc1cn2nc(Nc3cc(NC4CC4)c(C(=O)NC[C@@H](F)C(C)(C)O)cn3)ccc2n1 [Example 278] | 7.97 | – | 6.21 |
| CC(C)(O)[C@H](F)CNC(=O)c1cnc(Nc2ccc3nccn3n2)cc1NC1CCOCC1 [Example 279] | 8.40 | – | 6.53 |
| CC(C)(O)[C@H](F)CNC(=O)c1cnc(Nc2ccc3nccn3n2)cc1NC1CCC(F)C1 (some centres unmarked) [Example 280] | 8.57 | 6.90 | – |
| CC(C)(O)[C@H](F)CNC(=O)c1cnc(Nc2ccc3nccn3n2)cc1NC1CCC(F)C1 (some centres unmarked) [Example 281] | 8.92 | 6.45 | – |
| O=C(NC1CCC(O)CC1)c1cnc(Nc2ccc3nccn3n2)cc1NC1CCC1 (centres unmarked) [Example 282] | 7.94 | – | 6.34 |
| CC(C)(O)C(F)(F)CNC(=O)c1cnc(Nc2ccc3nccn3n2)cc1NC1CC1 [Example 283] | 8.02 | – | 6.38 |
| CC(C)(O)[C@H](F)CNC(=O)c1cnc(Nc2ccc3nccn3n2)cc1NC1CCOCC1F (some centres unmarked) [Example 285] | 8.15 | – | 6.29 |
| CC(C)Nc1cc(Nc2ccn3nccc3c2)ncc1C(=O)NC[C@@H](F)C(C)(C)O [Example 286] | 8.28 | – | 6.38 |
| CC(C)(O)[C@H](F)CNC(=O)c1cnc(Nc2ccn3nccc3c2)cc1NC1CCC(F)C1 (some centres unmarked) [Example 287] | 8.21 | – | 6.17 |
| CC(C)Nc1cc(Nc2ccn3ncc(F)c3c2)ncc1C(=O)NC[C@@H](F)C(C)(C)O [Example 288] | 9.00 | – | 6.87 |
| CC(C)CNc1cc(Nc2ccn3nccc3c2)ncc1C(=O)NC[C@@H](F)C(C)(C)O [Example 289] | 8.21 | – | 6.30 |
| CC(C)(O)[C@H](F)CNC(=O)c1cnc(Nc2ccn3nccc3c2)cc1NCC1CC1 [Example 290] | 7.94 | – | 6.22 |
| CC(C)(C)Nc1cc(Nc2ccn3nccc3c2)ncc1C(=O)NC[C@@H](F)C(C)(C)O [Example 291] | 8.15 | – | 6.55 |
| CC(C)(O)[C@H](F)CNC(=O)c1cnc(Nc2ccn3nccc3c2)cc1NCCC1CC1 [Example 292] | 8.15 | – | 6.37 |
| CC(C)(O)[C@H](F)CNC(=O)c1cnc(Nc2ccn3nccc3c2)cc1NC1CCC(F)(F)C1 (some centres unmarked) [Example 293] | 8.74 | – | 6.51 |
| CC(C)(F)CNc1cc(Nc2ccn3nccc3c2)ncc1C(=O)NC[C@@H](F)C(C)(C)O [Example 294] | 8.33 | – | 6.38 |
| CC(C)Nc1cc(Nc2ccn3ncc(Cl)c3c2)ncc1C(=O)NC[C@@H](F)C(C)(C)O [Example 295] | 8.32 | – | 6.35 |
| CC(C)(O)[C@H](F)CNC(=O)c1cnc(Nc2ccn3nccc3c2)cc1NC1CC(F)C1 (some centres unmarked) [Example 296] | 8.15 | – | 6.42 |
| CC(C)(O)[C@H](F)CNC(=O)c1cnc(Nc2ccn3nccc3c2)cc1NC1CCCC1(F)F (some centres unmarked) [Example 297] | 8.24 | – | 6.27 |
| CC(C)(O)[C@H](F)CNC(=O)c1cnc(Nc2ccn3nccc3c2)cc1NC1CCOCC1F (some centres unmarked) [Example 298] | 8.10 | – | 6.22 |
| CC(C)(O)[C@H](F)CNC(=O)c1cnc(Nc2ccn3nccc3c2)cc1NC1CCC(F)(F)C1 (some centres unmarked) [Example 299] | 8.77 | 6.38 | – |
| Cc1nn2ccc(Nc3cc(NCC(C)(C)F)c(C(=O)NC[C@@H](F)C(C)(C)O)cn3)cc2c1F [Example 300] | 8.36 | – | 6.53 |

| Structure (SMILES) | pIC50 (IRAK4) | pIC50 [1] | pIC50 ([1]; Homo sapiens, PBMC, 5 h) |
| --- | --- | --- | --- |
| CC(C)(F)CNc1cc(Nc2ccn3ncc(F)c3c2)ncc1C(=O)NC[C@@H](F)C(C)(C)O [Example 301] | 8.51 | – | 6.72 |
| CCC(C)Nc1cc(Nc2ccn3nccc3c2)ncc1C(=O)NC[C@@H](F)C(C)(C)O (some centres unmarked) [Example 302] | 8.25 | – | 6.37 |
| CC(C)(O)[C@H](F)CNC(=O)c1cnc(Nc2ccc3ncsc3n2)cc1NC1CC1 [Example 308] | 9.30 | – | 6.84 |
| CC(C)Nc1cc(Nc2ccc3ncsc3n2)ncc1C(=O)NC[C@@H](F)C(C)(C)O [Example 309] | 8.72 | – | 7.21 |
| CC(C)(O)[C@H](F)CNC(=O)c1cnc(Nc2ccc3ncsc3n2)cc1NCC(F)(F)F [Example 310] | 8.72 | – | 6.76 |
| CCNc1cc(Nc2ccc3ncsc3n2)ncc1C(=O)NC[C@@H](F)C(C)(C)O [Example 311] | 8.62 | – | 7.09 |
| CC(C)(O)[C@H](F)CNC(=O)c1cnc(Nc2ccc3ncsc3n2)cc1NC1CCOCC1 [Example 312] | 9.00 | – | 7.54 |
| CC(C)Nc1cc(Nc2ccc3ncsc3n2)ncc1C(=O)NCC(F)(F)C(C)(C)O [Example 313] | 8.47 | – | 7.14 |
| CC(C)(F)CNc1cc(Nc2ccc3ncsc3n2)ncc1C(=O)NC[C@@H](F)C(C)(C)O [Example 314] | 8.57 | – | 6.94 |
| CC(C)(O)[C@H](F)CNC(=O)c1cnc(Nc2cc3scnc3cn2)cc1NC1CC1 [Example 315] | 8.41 | – | 6.37 |
| CC(C)(F)CNc1cc(Nc2cc3scnc3cn2)ncc1C(=O)NC[C@@H](F)C(C)(C)O [Example 316] | 8.33 | – | 6.37 |
| CCC(O)(CC)[C@H](F)CNC(=O)c1cnc(Nc2ccc3ncsc3c2)cc1NCC(C)(C)F [Example 317] | 8.77 | – | 6.43 |
| CC(C)Nc1cc(Nc2ccn3nccc3n2)ncc1C(=O)NC12CCC(N)(CC1)CC2 [Example 318, N-(4-aminobicyclo[2.2.2]octan-1-yl)-4-(isopropylamino)-6-(pyrazolo[1,5-a]pyrimidin-5-ylamino)nicotinamide] | 8.16 | – | 6.56 |
| CNC(=O)c1ccc(Nc2cc(Nc3ccc4ncsc4c3)ncc2C(=O)NC[C@@H](F)C(C)(C)O)cc1 [Example 319, (R)-6-(benzo[d]thiazol-6-ylamino)-N-(2-fluoro-3-hydroxy-3-methylbutyl)-4-(4-(methylcarbamoyl)phenylamino)nicotinamide] | 8.52 | – | 6.50 |
| CC(C)(O)[C@H](F)CNC(=O)c1cnc(Nc2ccc3ncsc3c2)cc1Nc1ccc(C(N)=O)cc1 [Example 320] | 8.62 | – | 6.57 |
| CC(C)(O)[C@H](F)CNC(=O)c1cnc(Nc2ccc3ncsc3c2)cc1Nc1ccc(C(=O)NC2CC2)cc1 [Example 321] | 8.19 | – | 5.94 |
| CCNC(=O)c1ccc(Nc2cc(Nc3ccc4ncsc4c3)ncc2C(=O)NC[C@@H](F)C(C)(C)O)cc1 [Example 322] | 8.07 | – | 6.31 |
| CC(C)(O)[C@H](F)CNC(=O)c1cnc(Nc2ccc3ncsc3c2)cc1Nc1ccc(C(=O)NCC(F)(F)F)cc1 [Example 324] | 7.97 | – | 6.72 |
| CC(C)(O)[C@H](F)CNC(=O)c1cnc(Nc2ccc3ncsc3c2)cc1Nc1ccc(C(=O)NCCO)cc1 [Example 325] | 8.31 | – | 6.07 |
| CCCNC(=O)c1ccc(Nc2cc(Nc3ccc4ncsc4c3)ncc2C(=O)NC[C@@H](F)C(C)(C)O)cc1 [Example 326] | 7.89 | – | 6.36 |
| CC(C)(O)[C@H](F)CNC(=O)c1cnc(Nc2ccc3ncsc3c2)cc1N[C@H]1CCCC(O)C1 (stereo partly drawn) [Example 327, 6-(benzo[d]thiazol-6-ylamino)-N—((R)-2-fluoro-3-hydroxy-3-methylbutyl)-4-(3-hydroxycyclohexylamino)nicotinamide] | 8.01 | 6.00 | – |
| CC(C)(O)[C@H](F)CNC(=O)c1cnc(Nc2ccc3ncsc3c2)cc1N[C@H]1CCCC(O)C1 (some centres unmarked) [Example 328] | 8.32 | 6.31 | – |
| CC(C)(O)C(F)CNC(=O)c1cnc(Nc2ccc3ncsc3c2)cc1N[C@H]1CCCC(F)C1 (some centres unmarked) [Example 329, 6-(benzo[d]thiazol-6-ylamino)-N-(2-fluoro-3-hydroxy-3-methylbutyl)-4-(3-fluorocyclohexylamino)nicotinamide] | 8.49 | – | 6.95 |
| CC(C)(O)[C@H](F)CNC(=O)c1cnc(Nc2ccc3ncncc3c2)cc1N[C@@H]1CCC[C@H]1O [Example 330] | 8.66 | – | 7.12 |
| CC(C)C(O)[C@H](F)CNC(=O)c1cnc(Nc2ccc3ncsc3c2)cc1N[C@@H]1CCC[C@H]1O (some centres unmarked) [Example 331] | 8.62 | 6.79 | – |
| CC(C)C(O)[C@H](F)CNC(=O)c1cnc(Nc2ccc3ncsc3c2)cc1N[C@@H]1CCC[C@H]1O (some centres unmarked) [Example 332] | 8.51 | 6.10 | – |
| CC(O)([C@H](F)CNC(=O)c1cnc(Nc2ccc3ncsc3c2)cc1N[C@@H]1CCC[C@H]1O)C(F)(F)F (some centres unmarked) [Example 333] | 8.39 | 6.82 | – |
